Results from patent US20110288086A1, “POLYCYCLIC QUINAZOLINES, PREPARATION THEREOF, AND USE THEREOF” (priority 2010, published 2011).
Converted amounts (≈) assume the structure as drawn. Counter-ions that a name gives are not always drawn.

What was measured:
[1] = tested on: A549 human lung cancer cells; test: Tumor cell IC50, CCK-8 kit, A549; type: cell-based
Text: (§1) The inhibitory activities of the compounds on tumor cells (IC50) in vitro
(§2) The IC50 (IC50, unit: μg/ml) values of the compounds on Hut78 T-Lymphocytic Leukemia cells, Jurkat E6-1 human T-cell lymphoma, PANC-1 human pancreatic cancer cells, A549 human lung cancer cells, K562 human chronicity marrow leukemic cells, Hep3B2. 1-7 human hepatoma carcinoma cells, MDA-MB-435s human breast carcinoma cells, Colo320 human rectal cancer cells, PC-3 human carcinoma of prostate, and HepG2 human hepatoma carcinoma cells were determined using a CCK-8 kit. Erlotinib hydrochloride was used as the positive control drug.

[2] = tested on: K562 human chronicity marrow leukemic cells; test: Tumor cell IC50, CCK-8 kit, K562; type: cell-based
Text: as §1, §2

[3] = tested on: Hut78 T-Lymphocytic Leukemia cells; test: Tumor cell IC50, CCK-8 kit, Hut78; type: cell-based; details: Homo sapiens, Hut-78 cells
Text: as §1, §2

[4] = tested on: PC-3 human carcinoma of prostate; test: Tumor cell IC50, CCK-8 kit, PC-3; type: cell-based; details: PC-3 cells
Text: as §1, §2

[5] = tested on: MDA-MB-435s human breast carcinoma cells; test: Tumor cell IC50, CCK-8 kit, MDA-MB-435s; type: cell-based; details: 435s cells
Text: as §1, §2

[6] = tested on: Hep3B2. 1-7 human hepatoma carcinoma cells; test: Tumor cell IC50, CCK-8 kit, Hep3B; type: cell-based
Text: as §1, §2

[7] = tested on: PANC-1 human pancreatic cancer cells; test: Tumor cell IC50, CCK-8 kit, PANC-1; type: cell-based; details: PANC-1 cells
Text: as §1, §2

[8] = tested on: Jurkat E6-1 human T-cell lymphoma; test: Tumor cell IC50, CCK-8 kit, Jurkat E6-1; type: cell-based; details: E6-1 cells
Text: as §1, §2

[9] = tested on: Colo320 human rectal cancer cells; test: Tumor cell IC50, CCK-8 kit, Colo320; type: cell-based; details: COLO 320
Text: as §1, §2

[10] = tested on: PANC-1 human pancreatic cancer cells; test: Tumor cell inhibition ratio, CCK-8 kit, PANC-1; details: PANC-1, read-out: Antiproliferative effect (inhibition ratio) PANC-1
Text: (§3) The inhibitory activities of the compounds on tumor cells in vitro

[11] = tested on: MDA-MB-435s human breast carcinoma cells; test: Tumor cell inhibition ratio, CCK-8 kit, MDA-MB-435s; details: read-out: Antiproliferative effect (inhibition ratio) 435s
Text: as §3

[12] = tested on: Jurkat E6-1 human T-cell lymphoma; test: Tumor cell inhibition ratio, CCK-8 kit, Jurkat E6-1; details: Jurkat E6.1, read-out: Antiproliferative effect (inhibition ratio) E6-1
Text: as §3

[13] = tested on: Colo320 human rectal cancer cells; test: Tumor cell inhibition ratio, CCK-8 kit, Colo320; details: COLO 320, read-out: Antiproliferative effect (inhibition ratio) Colo320
Text: as §3

aurora kinase B = target: T1, aurora kinase B (Homo sapiens, UniProt Q96GD4); test: Aurora kinase B inhibition in vitro (Invitrogen aurora kinase screening kit PV3174); type: biochemical
T1 construct: purchased Invitrogen PV3174

[14] = tested on: A549 human lung cancer cells; test: Tumor cell inhibition ratio, CCK-8 kit, A549; details: A549, read-out: Antiproliferative effect (inhibition ratio) A549
Text: as §3

[15] = tested on: Hep3B2.1-7 human hepatoma carcinoma cells; test: Tumor cell inhibition ratio, CCK-8 kit, Hep3B; details: read-out: Antiproliferative effect (inhibition ratio) Hep3B
Text: as §3

[16] = tested on: PC-3 human carcinoma of prostate; test: Tumor cell inhibition ratio, CCK-8 kit, PC-3; details: read-out: Antiproliferative effect (inhibition ratio) PC-3
Text: as §3

[17] = tested on: Hut78 T-Lymphocytic Leukemia cells; test: Tumor cell inhibition ratio, CCK-8 kit, Hut78; details: Homo sapiens, HuT78, read-out: Antiproliferative effect (inhibition ratio) Hut-78
Text: as §3

[18] = tested on: K562 human chronicity marrow leukemic cells; test: Tumor cell inhibition ratio, CCK-8 kit, K562; details: K562, read-out: Antiproliferative effect (inhibition ratio) K562
Text: as §3

EGFR tyrosine kinase = EGFR tyrosine kinase (Homo sapiens, UniProt P00533); test: EGFR tyrosine kinase inhibition in vitro (Invitrogen EGFR inhibitor screening kit PV3193)
Chain of EGFR tyrosine kinase (P00533 25-1210): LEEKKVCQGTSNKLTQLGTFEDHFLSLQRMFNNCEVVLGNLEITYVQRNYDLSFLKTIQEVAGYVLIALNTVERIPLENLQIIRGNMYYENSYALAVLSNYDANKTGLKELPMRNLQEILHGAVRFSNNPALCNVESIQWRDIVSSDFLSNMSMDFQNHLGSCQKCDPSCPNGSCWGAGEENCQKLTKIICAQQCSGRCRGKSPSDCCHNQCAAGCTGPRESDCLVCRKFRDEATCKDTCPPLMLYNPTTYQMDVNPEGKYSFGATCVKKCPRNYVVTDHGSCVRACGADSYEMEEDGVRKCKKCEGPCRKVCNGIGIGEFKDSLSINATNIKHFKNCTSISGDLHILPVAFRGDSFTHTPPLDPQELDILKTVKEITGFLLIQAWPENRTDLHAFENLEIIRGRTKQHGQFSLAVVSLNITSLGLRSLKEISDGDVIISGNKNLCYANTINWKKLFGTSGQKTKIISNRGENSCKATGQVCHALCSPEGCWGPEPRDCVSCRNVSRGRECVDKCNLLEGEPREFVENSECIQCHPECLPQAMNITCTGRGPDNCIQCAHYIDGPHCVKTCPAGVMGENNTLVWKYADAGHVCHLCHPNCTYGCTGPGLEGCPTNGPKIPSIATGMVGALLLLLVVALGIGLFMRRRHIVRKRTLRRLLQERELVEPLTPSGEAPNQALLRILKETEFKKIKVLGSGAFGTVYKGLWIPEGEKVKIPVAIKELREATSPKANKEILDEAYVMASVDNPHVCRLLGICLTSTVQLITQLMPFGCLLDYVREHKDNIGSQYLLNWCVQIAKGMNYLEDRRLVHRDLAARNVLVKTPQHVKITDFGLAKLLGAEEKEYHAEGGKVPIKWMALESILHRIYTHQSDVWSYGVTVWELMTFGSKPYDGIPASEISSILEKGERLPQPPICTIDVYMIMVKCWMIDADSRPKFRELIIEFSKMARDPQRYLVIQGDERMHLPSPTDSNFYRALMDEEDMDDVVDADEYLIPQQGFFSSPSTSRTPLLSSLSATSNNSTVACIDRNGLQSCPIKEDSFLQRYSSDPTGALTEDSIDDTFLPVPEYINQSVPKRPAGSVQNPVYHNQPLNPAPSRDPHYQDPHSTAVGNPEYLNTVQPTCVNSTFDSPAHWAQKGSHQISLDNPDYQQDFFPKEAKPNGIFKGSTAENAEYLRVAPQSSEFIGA
Text: The inhibitory activities of EGFR tyrosine kinase in vitro
Erlotinib hydrochloride was used as a positive control drug.

T1 sequence (Q96GD4 whole entry): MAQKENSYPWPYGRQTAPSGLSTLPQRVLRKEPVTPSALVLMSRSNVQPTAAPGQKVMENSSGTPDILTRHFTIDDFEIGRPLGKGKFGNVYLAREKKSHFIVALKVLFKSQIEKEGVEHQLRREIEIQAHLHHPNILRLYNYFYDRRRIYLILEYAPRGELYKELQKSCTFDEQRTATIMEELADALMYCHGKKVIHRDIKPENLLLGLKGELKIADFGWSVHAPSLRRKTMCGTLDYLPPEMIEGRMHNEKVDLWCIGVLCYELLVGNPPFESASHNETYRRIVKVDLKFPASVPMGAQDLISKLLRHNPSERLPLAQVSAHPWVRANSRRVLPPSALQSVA

Compound	IC50 [1]	IC50 [2]	IC50 [3]	IC50 [4]	IC50 [5]	IC50 [6]	IC50 [7]	IC50 [8]	IC50 [9]	inhibition at 10 µM [10]	inhibition at 100 µM [10]	inhibition at 10 µM [11]	inhibition at 100 µM [11]	inhibition at 10 µM [12]	inhibition at 100 µM [12]	inhibition at 10 µM [13]	The inhibition ratio of the compound on Aurora B(%) (aurora kinase B; 40 μM)	The inhibition ratio of the compound on Aurora B(%) (aurora kinase B; 200 μM)	inhibition at 10 µM [14]	inhibition at 100 µM [14]	further results
C#Cc1cccc(Nc2ncnc3cc(OCCOC)c(OCCOC)cc23)c1 [Erlotinib hydrochloride, reference compound]	19.3 µg/mL	39.9 µg/mL	43.2 µg/mL	54.2 µg/mL	13.1 µg/mL	62.3 µg/mL	32.5 µg/mL	35.6 µg/mL	40.4 µg/mL	–	–	–	–	–	–	–	–	–	–	–	–
COc1cc2c(cc1OCCCN1CCCC1)C1=Nc3cccc(Cl)c3CN1C=N2 [Compound V-24, 9-chloro-3-methoxy-2-(3-(pyrrolidine-1-yl)propoxy)-8H-quinazolino[4,3-b]quinazoline]	23.3 µg/mL (≈ 54.8 µM)	10.3 µg/mL (≈ 24.3 µM)	2.14 µg/mL (≈ 5.04 µM)	3.41 µg/mL (≈ 8.02 µM)	53.4 µg/mL (≈ 126 µM)	43.1 µg/mL (≈ 101 µM)	1.94 µg/mL (≈ 4.57 µM)	9.86 µg/mL (≈ 23.2 µM)	4.76 µg/mL (≈ 11.2 µM)	42.4%	99.9%	48.9%	66.2%	46.6%	87.3%	52.7%	52.5%	90.3%	50.7%	98.2%	inhibition at 100 µM [13]: 99.4%; inhibition at 10 µM [15]: 60.3%; inhibition at 100 µM [15]: 94.6%; inhibition at 10 µM [16]: 53.5%; inhibition at 100 µM [16]: 98.9%; inhibition at 10 µM [17]: 44.3%; inhibition at 100 µM [17]: 99.6%; inhibition at 10 µM [18]: 53.6%; inhibition at 100 µM [18]: 93.8%; The inhibition ratio of the compound on EGFR(%) (EGFR tyrosine kinase; 40 μM): 53.1%; The inhibition ratio of the compound on EGFR(%) (EGFR tyrosine kinase; 200 μM): 94.3%
COCCOc1cc2c(cc1OCCOC)C1=Nc3ccc(F)c(Cl)c3CN1C=N2 [Compound V-13, 9-chloro-10-fluoro-2,3-bis(2-methoxyethoxy)-8H-quinazolino[4,3-b]quinazoline]	10.7 µg/mL (≈ 24.7 µM)	11 µg/mL (≈ 25.3 µM)	0.62 µg/mL (≈ 1.43 µM)	9.78 µg/mL (≈ 22.5 µM)	31.4 µg/mL (≈ 72.4 µM)	0.32 µg/mL (≈ 0.738 µM)	14.9 µg/mL (≈ 34.3 µM)	3.89 µg/mL (≈ 8.97 µM)	9.88 µg/mL (≈ 22.8 µM)	45.9%	87.2%	26.8%	67.9%	52.6%	98%	59.7%	55.2%	95.8%	43%	91.1%	inhibition at 10 µM [15]: 64.7%; inhibition at 100 µM [15]: 102%; inhibition at 10 µM [16]: 61.4%; inhibition at 100 µM [16]: 87.7%; inhibition at 10 µM [17]: 66.2%; inhibition at 100 µM [17]: 101%; inhibition at 10 µM [18]: 66.2%; inhibition at 100 µM [18]: 98.5%; The inhibition ratio of the compound on EGFR(%) (EGFR tyrosine kinase; 40 μM): 45.7%; The inhibition ratio of the compound on EGFR(%) (EGFR tyrosine kinase; 200 μM): 88.9%
C#Cc1ccc2c(c1)N=C1c3cc(OCCOC)c(OCCOC)cc3N=CN1C2 [Compound V-19, 11-ethynyl-2,3-bis(2-methoxyethoxy)-8H-quinazolino[4,3-b]quinazoline]	50 µg/mL (≈ 123 µM)	31.1 µg/mL (≈ 76.7 µM)	47.4 µg/mL (≈ 117 µM)	15.3 µg/mL (≈ 37.8 µM)	36.5 µg/mL (≈ 90.1 µM)	9.32 µg/mL (≈ 23 µM)	27.3 µg/mL (≈ 67.4 µM)	12.5 µg/mL (≈ 30.7 µM)	10 µg/mL (≈ 24.7 µM)	49.7%	85.9%	55.8%	91.6%	55.2%	91.1%	37%	52.4%	95.7%	48.6%	90.7%	inhibition at 100 µM [13]: 89.6%; inhibition at 10 µM [15]: 53.5%; inhibition at 100 µM [15]: 85%; inhibition at 10 µM [16]: 62.2%; inhibition at 100 µM [16]: 92.7%; inhibition at 10 µM [17]: 33%; inhibition at 100 µM [17]: 63.8%; inhibition at 10 µM [18]: 45.4%; inhibition at 100 µM [18]: 81.1%; The inhibition ratio of the compound on EGFR(%) (EGFR tyrosine kinase; 40 μM): 53.4%; The inhibition ratio of the compound on EGFR(%) (EGFR tyrosine kinase; 200 μM): 95.7%
Br.COCCOc1cc2c(cc1OCCOC)C1=Nc3cccc(N)c3CN1C=N2 [Compound V-6, 9-amino-2,3-bis(2-methoxyethoxy)-8H-quinazolino[4,3-b]quinazoline hydrobromide trihydrate]	3.68 µg/mL	46.4 µg/mL	58.8 µg/mL	33 µg/mL	33.5 µg/mL	15.6 µg/mL	16.8 µg/mL	30.5 µg/mL	29.8 µg/mL	64.2%	98.6%	50.4%	87%	61.1%	95.3%	73.5%	48.5%	93.8%	63%	97.3%	inhibition at 100 µM [13]: 99.2%; inhibition at 10 µM [15]: 51.3%; inhibition at 100 µM [15]: 84.7%; inhibition at 10 µM [16]: 53.4%; inhibition at 100 µM [16]: 84.4%; inhibition at 10 µM [17]: 69%; inhibition at 100 µM [17]: 91.9%; inhibition at 10 µM [18]: 64.1%; inhibition at 100 µM [18]: 82.8%; The inhibition ratio of the compound on EGFR(%) (EGFR tyrosine kinase; 40 μM): 55.2%; The inhibition ratio of the compound on EGFR(%) (EGFR tyrosine kinase; 200 μM): 93.8%
COc1cc2c(cc1OCCCN1CCOCC1)C1=Nc3cc(Cl)ccc3CN1C=N2 [Compound V-28, 4-(3-((11-chloro-3-methoxy-8H-quinazolino[4,3-b]quinazoline-2-yl)oxy)propyl)morpholine]	6.42 µg/mL (≈ 14.6 µM)	7.84 µg/mL (≈ 17.8 µM)	16.7 µg/mL (≈ 37.9 µM)	31.4 µg/mL (≈ 71.3 µM)	16.3 µg/mL (≈ 37 µM)	36.8 µg/mL (≈ 83.3 µM)	18.8 µg/mL (≈ 42.6 µM)	10 µg/mL (≈ 22.7 µM)	59.7 µg/mL (≈ 135 µM)	51.7%	95.6%	54.9%	90.7%	40.4%	95.4%	16.3%	45.2%	78.7%	53.7%	97.5%	inhibition at 100 µM [13]: 63.3%; inhibition at 10 µM [15]: 40.1%; inhibition at 100 µM [15]: 92.8%; inhibition at 10 µM [16]: 56.4%; inhibition at 100 µM [16]: 88%; inhibition at 10 µM [17]: 59.2%; inhibition at 100 µM [17]: 90.5%; inhibition at 10 µM [18]: 64.6%; inhibition at 100 µM [18]: 99.9%; The inhibition ratio of the compound on EGFR(%) (EGFR tyrosine kinase; 40 μM): 64.4%; The inhibition ratio of the compound on EGFR(%) (EGFR tyrosine kinase; 200 μM): 98.7%
COCCOc1cc2c(cc1OCCOC)C1=Nc3cccc([N+](=O)[O-])c3CN1C=N2 [Compound V-5, 9-nitro-2,3-bis(2-methoxyethoxy)-8H-quinazolino[4,3-b]quinazoline]	–	–	–	–	–	–	–	–	–	17.1%	80.3%	48.9%	87.2%	34.8%	78.9%	51.7%	35.1%	74.6%	59.8%	92.5%	inhibition at 100 µM [13]: 84.9%; inhibition at 10 µM [15]: 22.3%; inhibition at 100 µM [15]: 54.4%; inhibition at 10 µM [16]: 32.5%; inhibition at 100 µM [16]: 63.6%; inhibition at 10 µM [17]: 43.8%; inhibition at 100 µM [17]: 63.5%; inhibition at 10 µM [18]: 23.6%; inhibition at 100 µM [18]: 78.3%; The inhibition ratio of the compound on EGFR(%) (EGFR tyrosine kinase; 40 μM): 25.2%; The inhibition ratio of the compound on EGFR(%) (EGFR tyrosine kinase; 200 μM): 74.6%
